According to patent US8993523B2, “Dimeric IAP inhibitors” (Novartis AG, priority 2010, dated 2015):
pEC50, pIC50: −log10 of the molar value.

Legend:
[1] = tested on: xenograft tumors; experiment: In vivo combination study in xenograft tumor mice; settings: 1× per week, mice with xenograft tumors, 2-3 weeks
Method: In vivo combination studies were performed as follows. Cohorts of mice (n=8) were treated with (1) Cohort A: Example 1A (1.8 mg/kg, 1× per week), (2) Cohort B: Paclitaxel (12 mg/kg, 1× per week), or (3) Cohort C: a combination of Example 1A (1.8 mg/kg, 1× per week)+Paclitaxel (12 mg/kg, 1× per week). Studies typically initiated dosing when xenograft tumors were 200 mm^3 and lasted 2-3 weeks. Positive combination activity occurs when neither single agent treatment alone results in tumor regression (i.e. increase in tumor volume is not inhibited in treated animals) but the combination results in tumor regression (i.e. tumor volume decreases in treated animals).

[2] = tested on: Panc3.27 tumor cells; experiment: Cellular assay: Panc3.27 tumor cell proliferation (Cell Titer Glo); assay type: cell-based; settings: Panc3.27 cells, 72 hour treatment, read-out: PANC proliferation IC50
Method: Cellular Assay—Treatment of Panc3.27 Tumor Cells with Dimeric IAP Antagonists
On day one adherent Panc3.27 cells are plated into two 96-well, clear, flat bottom plates. All wells in row A contain 90 uL of media. All wells in rows B-G contain a total volume of 90 uL per well and 4000 cells per well for Panc3.27 cell lines. Plates are then incubated overnight for 18 hours at 37° C., 5% CO2.
On day two cells are treated with the compounds of formula M-L-M′. Treatments are done in triplicate. The compounds are first serially diluted in DMSO and then added to media giving a final concentration of 0.2% DMSO when added to cells. Cells are treated with 10 uL of serially diluted compounds of formula M-L-M′ at a final concentration of 1000 nM, 200 nM, 40 nM, 8 nM, 1.6 nM, 0.32 nM, 0.06 nM, 0.013 nM, 0.0026 nM, and one untreated well. Plate two is used as a time zero plate.
To measure cell viability 50 uL of Cell Titer Glo (CTG) solution is added to row A, media only and B, cells and media. CTG is purchased from Promega Corporation catalog number G7573. The solution is prepared according to manufacturer's instructions. CTG measures the amount of ATP released from viable cells that is proportional to the number of cells in each well. After incubating for ten minutes with CTG plates are measured on a luminescent reader at 700 nm wavelength. Read time is approximately one second per well for a 96-well plate.
On day five 50 uL of CTG is added to plate one, rows A-G, incubated for 10 minutes at room temperature and read on a luminescent reader. Raw data is adjusted to account for the time zero plate as well as background noise. Triplicate values are averaged and percent control growth is calculated. Percent control growth is calculated using the following logical test: If well read data point (a) is greater than time zero data point (t=0), then 100*[(a)−(t=0)]/[(72 hour total growth)−(t=0)], OR 100*[(a)−(t=0)]/[(t=0)]. Data is represented by line graph with the concentration of compound on the x axis and percent control growth on the y axis.

[3] = biological target: T1, XIAP-BIR3 (Homo sapiens, UniProt P98170); experiment: Biacore SPR solution inhibition (competition with smac7mer peptide) binding assay, XIAP-BIR3; settings: 100 nM XIAP-BIR3, competition with immobilised smac7mer peptide, 25° C.; read-out: XIAP-BIR3 Binding Biacore (Competitive) EC50
T1 construct: with either 100 nM XIAP-BIR3 or 6 nM cIAP1-BIR3
T1 sequence (P98170 241-356 limits assumed): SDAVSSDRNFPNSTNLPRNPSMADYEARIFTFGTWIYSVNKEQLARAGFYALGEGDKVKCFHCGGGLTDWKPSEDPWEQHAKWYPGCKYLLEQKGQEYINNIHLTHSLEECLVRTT
Source text: (§1) The present method includes utility of a Surface plasmon resonance (SPR)-based biosensor (Biacore™ GE Healthcare, Uppsala, Sweden) to examine competition between the compounds of the present invention and smac7mer peptide for XIAP-BIR3 and cIAP1-BIR3 binding groove occupancy.
(§2) Biacore™ utilizes the phenomenon of surface plasmon resonance (SPR) to detect and measure binding interactions. In a typical Biacore experiment, one of the interacting molecules is immobilized on a flexible dextran matrix while the interacting partner is flowed over the derivatized surface. A binding interaction results in an increase in mass on the sensor surface and a corresponding direct change in the refractive index of the medium in the vicinity of the sensor surface. Changes in refractive index or signal are recorded in resonance units (R.U.) Signal changes due to association and dissociation of complexes are monitored in a non-invasive manner, continuously and in real-time, the results of which are reported in the form of a sensorgram.
(§3) Solution Inhibition Assay Format:
(§4) Biacore™ T100 (GE Healthcare, Uppsala, Sweden) was used to conduct all experiments reported herein. Sensor surface preparation and interaction analyses were performed at 25° C. Buffer and Biacore reagents were purchased from GE Healthcare. Running buffer containing 10 mM Hepes, pH7.4, 150 mM sodium chloride, 1.25 mM Dithiothreitol, 2% Dimethyl sulfoxide and 0.05% polysorbate 20 was utilized throughout all experiments.
(§5) Biotinylated smac7mer peptide was diluted to 10 nM in running buffer and captured onto a sensor surface pre-derivatized with streptavidin (sensor chip SA) towards peptide surface densities in the range 40-100 R.U. Peptide captured surfaces were blocked with 500 μM PEO2-Biotin (Thermo Scientific).
(§6) Interaction analyses were performed by first equilibrating each compound within a six point seven fold compound dilution series in the range 1 μM to 0.06 nM with either 100 nM XIAP-BIR3 or 6 nM cIAP1-BIR3 for at least one hour during instrument start-up procedures. Protein compound mixtures were then injected over reference and smac7mer peptide surfaces in series for 60 seconds at a flow-rate of 60 μL/min. Surface regeneration was performed at the end of each analysis cycle by a 30 second injection of 10 mM Glycine, pH 2.5, 1M Sodium Chloride, 0.05% polysorbate 20. Additionally, control compound samples and control XIAP-BIR3 or cIAP1-BIR3 samples were prepared and run at regular intervals to monitor surface and assay performance.
(§7) Data analyses were carried out using Biacore™ T100 evaluation software v2.0 to validate assay quality. Binding level report points were plotted versus logarithmic compound concentration values and analyzed in Graphpad prism 5 via non-linear regression using a one-site competition model. EC50 values were generated and used as a measure of inhibitor potency.

[4] = biological target: T2, cIAP1-BIR3 (Homo sapiens, UniProt Q13490); experiment: Biacore SPR solution inhibition (competition with smac7mer peptide) binding assay, cIAP1-BIR3; settings: 6 nM cIAP1-BIR3, competition with immobilised smac7mer peptide, 25° C.; read-out: CIAP-BIR3 Binding Biacore (Competitive) EC50
T2 construct: with either 100 nM XIAP-BIR3 or 6 nM cIAP1-BIR3
T2 sequence (Q13490 260-352 limits assumed): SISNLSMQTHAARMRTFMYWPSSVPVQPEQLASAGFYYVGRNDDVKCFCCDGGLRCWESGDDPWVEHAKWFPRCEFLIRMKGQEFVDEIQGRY
Source text: as §1, §2, §3, §4, §5, §6, §7

| Compound | tumor response, single agent ([1]; Cohort A: 1.8 mg/kg) | pIC50 [2] | pEC50 [3] | pEC50 [4] | tumor growth control ([1]; Cohort B: 12 mg/kg) [%] |
| --- | --- | --- | --- | --- | --- |
| CN[C@@H](C)C(=O)N[C@H](C(=O)N1CCC[C@H]1c1cncc(-n2ccc3c(C(=O)NCCCOCCOCCCNC(=O)c4cccc5c4ccn5-c4cncc([C@@H]5CCCN5C(=O)[C@@H](NC(=O)[C@H](C)NC)C(C)C)c4)cccc32)c1)C(C)C [Example 1A, (S,S,S)—N,N′-(3,3′-(Ethane-1,2-diylbis(oxy))bis(propane-3,1-diyl))bis(1-(5-((S)-1-((S)-3-methyl-2-((S)-2-(methylamino)-propanamido)butanoyl)pyrrolidin-2-yl)pyridin-3-yl)-1H-indole-4-carboxamide)] | tumor stasis was achieved | 9.08 to 11.59 | 7.24 to 7.46 | 9.24 to 9.62 | – |
| CN[C@@H](C)C(=O)N[C@H](C(=O)N1CCC[C@H]1c1cncc(-n2cc(C(=O)NCCCCCCNC(=O)c3cn(-c4cncc([C@@H]5CCCN5C(=O)[C@@H](NC(=O)[C@H](C)NC)C(C)C)c4)c4ccccc34)c3ccccc32)c1)C(C)C [Example 2L, (S,S,S)—N,N′-(hexane-1,6-diyl)bis(1-(5-((S)-1-((S)-3-methyl-2-((S)-2-(methylamino)propanamido)butanol)pyrrolidin-2-yl)pyridin-3-yl)-1H-indole-3-carboxamide)] | – | > 11.59 | 7.59 | 8.76 to 8.77 | – |
| CN[C@@H](C)C(=O)N[C@H](C(=O)N1CCC[C@H]1c1cncc(-n2cc(C(=O)N[C@H]3CC[C@H](NC(=O)c4cn(-c5cncc([C@@H]6CCCN6C(=O)[C@@H](NC(=O)[C@H](C)NC)C(C)C)c5)c5ccccc45)CC3)c3ccccc32)c1)C(C)C [Example 2M, 1-(5-((S)-1-((S)-3-methyl-2-((S)-2-(methylamino)propanamido)-butanoyl)pyrrolidin-2-yl)pyridin-3-yl)-N-((1S,4S)-4-(1-(5-((S)-1-((S)-3-methyl-2-((S)-2-(methylamino)propanamido)butanoyl)pyrrolidin-2-yl)pyridin-3-yl)-1H-indole-3-carboxamido)cyclohexyl)-1H-indole-3-carboxamide] | – | > 11.59 | 7.58 | 9.15 | – |
| CN[C@@H](C)C(=O)N[C@H](C(=O)N1CCC[C@H]1c1cncc(-n2cc(C(=O)N3CC4(C3)CN(C(=O)c3cn(-c5cncc([C@@H]6CCCN6C(=O)[C@@H](NC(=O)[C@H](C)NC)C(C)C)c5)c5ccccc35)C4)c3ccccc32)c1)C(C)C [Example 2N, (2S,2′S)—N,N′-((2S,2′S)-1,1′-((2S,2′S)-2,2′-(5,5′-(3,3′-(2,6-diazaspiro[3.3]heptane-2,6-diylbis(oxomethylene))bis(1H-indole-3,1-diyl))bis(pyridine-5,3-diyl))bis(pyrrolidine-2,1-diyl))bis(3-methyyl-1-oxobutane-2,1-diyl))bis(2-(methylamino)propanamide)] | – | 8.08 to 8.15 | 7.48 to 7.49 | 9.17 to 9.24 | – |
| CN[C@@H](C)C(=O)N[C@H](C(=O)N1CCC[C@H]1c1cncc(-n2cc(C(=O)N3CCN(C(=O)c4cn(-c5cncc([C@@H]6CCCN6C(=O)[C@@H](NC(=O)[C@H](C)NC)C(C)C)c5)c5ccccc45)CC3)c3ccccc32)c1)C(C)C [Example 2O, (2S,2′S)—N,N′-((2S,2′S)-1,1′-((2S,2′S)-2,2′-(5,5′-(3,3′-(piperazine-1,4-diylbis(oxomethylene))bis(1H-indole-3,1-diyl))bis(pyridine-5,3-diyl))bis(pyrrolidine-2,1-diyl))bis(3-methyl-1-oxobutane-2,1-diyl))bis(2-(methylamino)propanamide)] | – | 8.86 to 9.27 | 7.41 | 8.66 | – |
| CN[C@@H](C)C(=O)N[C@H](C(=O)N1CCC[C@H]1c1cncc(-n2cc(C(=O)NCc3ccc(CNC(=O)c4cn(-c5cncc([C@@H]6CCCN6C(=O)[C@@H](NC(=O)[C@H](C)NC)C(C)C)c5)c5ccccc45)cc3)c3ccccc32)c1)C(C)C [Example 2P, (S,S,S)—N,N′-(1,4-phenylenebis(methylene))bis(1-(5-((S)-1-((S)-3-methyl-2-((S)-2-(methylamino)propanamido)butanoyl)pyrrolidin-2-yl)pyridin-3-yl)-1H-indole-3-carboxamide)] | – | > 11.59 | 7.15 | 8.91 to 8.92 | – |
| [2H]C([2H])([2H])N[C@@H](C)C(=O)N[C@H](C(=O)N1CCC[C@H]1c1cncc(-n2ccc3c(C(=O)NCCCOCCOCCCNC(=O)c4cccc5c4ccn5-c4cncc([C@@H]5CCCN5C(=O)[C@@H](NC(=O)[C@H](C)NC([2H])([2H])[2H])C(C)C)c4)cccc32)c1)C(C)C [Example 3A, (S,S,S)—N,N′-(3,3′-(ethane-1,2-diylbis(oxy))bis(propane-3,1-diyl))bis(1-(5-((S)-1-((S)-3-methyl-2-((S)-2-(trideuteromethylamino)propanamido)butanoyl)-pyrrolidin-2-yl)pyridin-3-yl)-1H-indole-4-carboxamide)] | – | 9.77 to 9.92 | 7.35 | 9.23 | – |
| CC(=O)O[C@H]1C(=O)[C@@]2(C)[C@H]([C@H](OC(=O)c3ccccc3)[C@]3(O)C[C@H](OC(=O)[C@H](O)[C@@H](NC(=O)c4ccccc4)c4ccccc4)C(C)=C1C3(C)C)[C@]1(OC(C)=O)CO[C@@H]1C[C@@H]2O [Paclitaxel, reference compound] | – | – | – | – | > 50 |
| (S,S,S)—N,N′-(propane-1,3-diyl)bis(1-(5-((S)-1-((S)-3-methyl-2-((S)-2-(methylamino)propanamido)butanoyl)pyrrolidin-2-yl)pyridin-3-yl)-1H-indole-3-carboxamide) [Example 2A] | – | 8.54 to 9.85 | 7.28 to 7.30 | 8.96 to 9.22 | – |
